“And” between values parts separate entries of the source, which are not always exact repeats. Equal entries are not always repeated. Values belong to the compound of their own block, whether it stands above or below them.
Columns and labels:
[1] = Free radical scavenging: inhibition of autoxidation of 1-epinephrine (Misra and Fridovich assay); assay type: biochemical; conditions: 1-epinephrine 1 x 10⁻⁴M, EDTA 1 x 10⁻⁴M, 30°C, absorbance at 480 nm; read-out: 50% inhibition of the autoxidation rate (ID₅₀)
Description: 2-(3,4-dihydro-6-hydroxy-2,5,7,8-tetramethyl-2H-1-benzopyran-2-yl)ethyl-N,N,N-trimethylammonium bromide, described in Example 1, was evaluated for its ability to reduce superoxide radicals in an assay described by H.P. Misra and J. Fridovich, 1972, J. Biol. Chem. 247, 3170-5. In this assay, the rate of autoxidation of 1-epinephrine (1 x 10⁻⁴M) in the presence of EDTA (1 x 10⁻⁴M) at 30°C is followed spectrophotometrically following the increase of absorbance at 480 mn. […] For comparison, 3,4-dihydro-6-hydroxy-2,5,7,8-tetramethyl-2H-1-benzopyran -2-carboxylic acid (CAS 53188-07-1) gave ID₅₀ = 105 ± 8 µM and d,1-penicillamine (CAS 52-67-5) ID₅₀ = 73 µM in parallel experiments. Misra and Fridovich report that bovine superoxide dismutase gave 50% inhibition at […].

[2] = system: ligation-induced infarcted and reperfused rats; test: Cardioprotective effects: coronary ligation 60 min and reperfusion 30 min, infarcted area versus area at risk; assay type: in vivo
Description: 2-(3,4-Dihydro-2,5,7,8-tetramethyl-6-methyl-carbonyloxy-2H-1-benzopyran-2-yl) ethyl-N,N,N-trimethyl-ammonium bromide was evaluated in ligation-induced infarcted and reperfused rats as follows. One of two groups of rats was infused intravenously with a solution of test compound in saline at a rate of 2.3 ml/h (10 mg/kg/h). The control group was infused with saline at the same rate. After 10 min of drug infusion, coronary arteries were ligated surgically for 60 min, ligation was loosened to allow reperfusion for 30 min. The ligation was retied and a dye (Evans Blue) was injected. The animals were sacrificed and the heart ventricles were removed and weighed. The unstained tissue was dissected and weighed; this represents the "area at risk", i.e. the area that was deprived of blood supply by ligation. To determine the infarcted area, the tissue was incubated with 2,3,5-triphenyltetrazolium chloride. Infarcted tissue became light colored and could be dissected and weighed. Thus, for each rat that survived the ligation a measurement of "area at risk" and of "infarcted area" was obtained and the ratio was calculated as given in Tables II and III.

[3] = Affinity for cardiac tissue: radioactivity in heart and blood after intravenous 14C-labelled compound; assay type: in vivo; set-up: ng equiv/g heart: unit not given here; conditions: rats, 0.91 mg base/kg intravenous
Description: Following the procedure described in Example 1, but using ¹⁴C-methyl p-toluenesulfonate in place of "cold material", ¹⁴C-labelled 2-(3,4-dihydro-2,5,7,8-tetramethyl-6-methylcarbonyloxy-2H-1-benzopyranan-2-yl)ethyl-N,N,N-tri-¹⁴C-methylammonium p-toluenesulfonate was synthesized. The preparation was diluted with "cold material" to 11.74 µCi/mg base.
24 rats were given 0.91 mg base/kg by intravenous route (by canula into the jugular vein). The animals were sacrificed in groups of 3 at the time periods indicated in Table I. Immediately before sacrifice a 0.5 ml blood sample was taken from an indwelling catheter in the carotid artery. The hearts were removed, blotted and weighed. The samples of tissue and blood were solubiized with Luma Solve (a quaternary ammonium hydroxide preparation) and radioactivity was determined in a scintillation counter.

[4] = treated group, 10 mg/kg/h intravenous infusion, individual rats No. 1-10, 10 mg/kg

Structure (SMILES): Cc1c(C)c2c(c(C)c1O)CCC(C)(C(=O)O)O2 (stereo not drawn) [3,4-dihydro-6-hydroxy-2,5,7,8-tetramethyl-2H-1-benzopyran-2-carboxylic acid]
IC50 [1]: 105 ± 8 µM

Structure (SMILES): Cc1c(C)c2c(c(C)c1O)CCC(C)(CC[N+](C)(C)C)O2 (stereo not drawn) [Example 1, 2-(3,4-Dihydro-6-hydroxy-2,5,7,8-tetramethyl-2H-1-benzo-pyran-2-yl)ethyl-N,N,N-trimethylammonium bromide]
IC50 [1]: 138 ± 14 µM

Structure (SMILES): CC(=O)Oc1c(C)c(C)c2c(c1C)CCC(C)(CC[N+](C)(C)C)O2.[Br-] (stereo not drawn) [Example 2, 2-(3,4-Dihydro-2,5,7,8-tetramethyl-6-methylcarbonyloxy-2H-1-benzopyran-2-yl)ethyl-N,N,N-trimethylammonium bromide]
reduction of infarction ([2]; treated (10 mg/kg/h) versus saline control, statistically significant (ANOVA) at p = 0.02): 42.7%
Ratio % (infarcted tissue / tissue at risk), average ([2]; treated group, 10 mg/kg/h intravenous infusion, average of 10 rats, control group 83.31, 10 mg/kg): 47.8% and 47.75%
Infarcted tissue,mg [2, 4]: 23 mg and 27 mg and 299 mg and 39 mg and 33 mg and 247 mg and 193 mg and 134 mg and 123 mg and 157 mg
Ratio % (infarcted tissue / tissue at risk) [2, 4]: 45.2% and 9.4% and 97.5% and 15.5% and 18.9% and 64.8% and 62.1% and 64.5% and 31.2% and 68.4%

Ratio heart/blood ([3]; 5 min after administration): 3.05 ± 1.46
ng equiv/g heart ([3]; 5 min after administration): 1.591 ± 0.22
ng equiv/ml blood ([3]; 5 min after administration): 0.434 ± 0.351 ng equiv/ml blood
Ratio heart/blood ([3]; 15 min after administration): 6.90 ± 8.34
ng equiv/g heart ([3]; 15 min after administration): 1.728 ± 0.422
ng equiv/ml blood ([3]; 15 min after administration): 0.590 ± 0.295 ng equiv/ml blood
Ratio heart/blood ([3]; 30 min after administration): 17.33 ± 5.42
ng equiv/g heart ([3]; 30 min after administration): 1.905 ± 0.278
ng equiv/ml blood ([3]; 30 min after administration): 0.124 ± 0.032 ng equiv/ml blood
Ratio heart/blood ([3]; 1 hour after administration): 20.09 ± 2.54
ng equiv/g heart ([3]; 1 hour after administration): 2.092 ± 0.406
ng equiv/ml blood ([3]; 1 hour after administration): 0.096 ± 0.008 ng equiv/ml blood
Ratio heart/blood ([3]; 2 hours after administration): 21.90 ± 3.56
ng equiv/g heart ([3]; 2 hours after administration): 1.395 ± 0.042
ng equiv/ml blood ([3]; 2 hours after administration): 0.086 ± 0.041 ng equiv/ml blood
ng equiv/g heart ([3]; 4 hours after administration): 1.253 ± 0.248
ng equiv/ml blood ([3]; 4 hours after administration): 0.054 ± 0.013 ng equiv/ml blood
Ratio heart/blood ([3]; 4 hours after administration (maximum), listed as 2-(3,4-dihydro-2,5,7,8-tetramethyl-6-methylcarbonyloxy-2H-1-benzopyranan-2-yl)et, p-toluenesulfonate): 27.15 and 27.15 ± 4.30
Ratio heart/blood ([3]; 6 hours after administration): 18.62 ± 2.77
ng equiv/g heart ([3]; 6 hours after administration): 0.863 ± 0.067
ng equiv/ml blood ([3]; 6 hours after administration): 0.048 ± 0.007 ng equiv/ml blood
Ratio heart/blood ([3]; 8 hours after administration): 15.12 ± 2.69
ng equiv/g heart ([3]; 8 hours after administration): 0.652 ± 0.116
ng equiv/ml blood ([3]; 8 hours after administration): 0.048 ± 0.012 ng equiv/ml blood
concentration of drug in heart tissue ([3]; after 8 h): 0.65 µg equiv/g
affinity for heart tissue ([3]; conclusion in words): marked affinity for heart tissue
Structure (SMILES): CC(=O)Oc1c(C)c(C)c2c(c1C)CCC(C)(CC[N+](C)(C)C)O2.Cc1ccc(S(=O)(=O)[O-])cc1 (stereo not drawn) [Example 9, 2-(3,4-Dihydro-2,5,7,8-tetramethyl-6-methylcarbonyloxy-2H-1-benzopyran-2-yl)ethyl-N,N,N-trimethylammonium p-toluenesulfonate]

Structure (SMILES): CC(C)(S)[C@@H](N)C(=O)O [d,1-penicillamine]
IC50 [1]: 73 µM

— EP0369083A1, “Cardioprotective tocopherol analogs” (MERRELL DOW PHARMACEUTICALS INC., priority 1988, dated 1990)
